Measurements: EPA's ToxRefDB 2

Experiments:
rat [1] = settings: Subchronic oral toxicity in rodents, fischer, Inhalation, Whole-Body, dose end: 90 day, group: systemic
rat [2] = settings: Multigenerational reproductive toxicity study, sprague dawley, Inhalation, Whole-Body, dose end: 2 generation
mouse [3] = settings: Subchronic inhalation toxicity, cd1, Whole-Body, dose end: 13 week, group: systemic
rat [4] = settings: Subchronic inhalation toxicity, fischer, Whole-Body, dose end: 14 day, group: systemic
rabbit [5] = settings: Subchronic inhalation toxicity, new zealand white, Whole-Body, dose end: 13 week, group: systemic
rat [6] = settings: Multigenerational reproductive toxicity study, sprague dawley, Inhalation, Whole-Body, dose end: 2 generation; remark: listed apart in the source
mouse [7] = settings: Carcinogenicity; cd1; Inhalation; Whole-Body; dose end: 18 month; group: systemic; systemic / in life observation / body weight / body weight gain + systemic / in life observation / mortality / mortality + systemic / …
dog [8] = settings: Subchronic inhalation toxicity, beagle, Whole-Body, dose end: 13 week, group: systemic, systemic / in life observation / body weight / body weight + systemic / in life observation / body weight / body weight gain + systemic / …
rabbit [9] = settings: Subchronic inhalation toxicity, new zealand white, Whole-Body, dose end: 14 day, group: systemic, systemic / pathology microscopic / brain / necrosis + systemic / pathology microscopic / brain / vacuolization + systemic / pathology …
rat [10] = settings: Combined chronic toxicity/carcinogenicity, fischer, Inhalation, Whole-Body, dose end: 104 week, group: systemic
dog [11] = settings: Chronic toxicity; beagle; Inhalation; Whole-Body; dose end: 12 month; group: systemic; systemic / in life observation / body weight / body weight gain + systemic / in life observation / clinical signs / dental fluorosis + …
[12] = systemic / organ weight / brain / absolute + systemic / in life observation / clinical signs / tooth-mottling + systemic / pathology …
[13] = systemic / pathology microscopic / nose / inflammation
[14] = group: offspring, systemic / in life observation / body weight / offspring (pup) weight
[15] = group: parental, systemic / pathology microscopic / lung / alveolar macrophages + systemic / in life observation / body weight / body weight + systemic / in …
[16] = group: parental, systemic / pathology microscopic / lung / alveolar macrophages + systemic / pathology gross / lung / foci
[17] = systemic / in life observation / body weight / body weight + systemic / in life observation / body weight / body weight gain + systemic / …
[18] = systemic / pathology microscopic / kidney / hyperplasia + systemic / pathology microscopic / kidney / basophilia
[19] = systemic / pathology microscopic / kidney / hyperplasia + systemic / pathology microscopic / kidney / basophilia + systemic / in life …
[20] = systemic / pathology microscopic / nose / inflammation + systemic / clinical chemistry / flouride / fluoride
[21] = group: parental, systemic / pathology gross / lung / foci + systemic / pathology microscopic / lung / alveolar macrophages
[22] = group: parental, systemic / pathology gross / lung / foci + systemic / pathology microscopic / lung / alveolar macrophages + systemic / in life observation…
[23] = systemic / in life observation / clinical signs / dental fluorosis
[24] = systemic / in life observation / clinical signs / dental fluorosis + systemic / clinical chemistry / albumin / albumin + systemic / clinical…

Q: With `O=S(=O)(F)F` [Sulfuryl fluoride] as the compound, how does the LOAEL (rat [1]; [12]) read?
A: The LOAEL was 5 mg/kg/day.

Q: What about the NOAEL (rat [1]; [12]) of the same compound?
A: Its NOAEL is 1.49 mg/kg/day.

Q: And the LEL (rat [1]; [13])?
A: The LEL was 1.49 mg/kg/day.

Q: And the NEL (rat [1]; [13])?
A: The NEL was under 1.49 mg/kg/day.

Q: And the LEL (rat [2]; [14])?
A: Its LEL is 108 mg/kg/day.

Q: And the LOAEL (rat [2]; [14])?
A: Its LOAEL is 108 mg/kg/day.

Q: What about the NEL (rat [2]; [14]) of the same compound?
A: The NEL was 14 mg/kg/day.

Q: What about the NOAEL (rat [2]; [14]) of the same compound?
A: The NOAEL was 14 mg/kg/day.

Q: And the NEL (rat [2]; [15])?
A: The NEL was 3.6 mg/kg/day.

Q: What about the NOAEL (rat [2]; [15]) of the same compound?
A: Its NOAEL is 3.6 mg/kg/day.

Q: What about the LEL (rat [2]; [16]) of the same compound?
A: Its LEL is 14 mg/kg/day.

Q: What about the LOAEL (rat [2]; [16]) of the same compound?
A: The LOAEL was 14 mg/kg/day.

Q: What about the LEL (mouse [3]; systemic / clinical chemistry / flouride / fluoride) of the same compound?
A: Its LEL is 30 ppm.

Q: What about the LOAEL (mouse [3]; [17]) of the same compound?
A: Its LOAEL is 100 ppm.

Q: What about the NEL (mouse [3]; [17]) of the same compound?
A: The NEL was 10 ppm.

Q: What about the NOAEL (mouse [3]; [17]) of the same compound?
A: Its NOAEL is 30 ppm.

Q: What about the LEL (rat [4]; [18]) of the same compound?
A: Its LEL is 249 mg/kg/day.

Q: What about the LOAEL (rat [4]; [18]) of the same compound?
A: Its LOAEL is 249 mg/kg/day.

Q: What about the NEL (rat [4]; [19]) of the same compound?
A: The NEL was 83 mg/kg/day.

Q: And the NOAEL (rat [4]; [19])?
A: Its NOAEL is 83 mg/kg/day.

Q: What about the LOAEL (rabbit [5]; [17]) of the same compound?
A: Its LOAEL is 100 ppm.

Q: What about the NOAEL (rabbit [5]; [17]) of the same compound?
A: Its NOAEL is 29.8 ppm.

Q: And the LEL (rabbit [5]; [20])?
A: Its LEL is 29.8 ppm.

Q: What about the NEL (rabbit [5]; [20]) of the same compound?
A: The NEL was under 29.8 ppm.

Q: What about the LEL (rat [6]; [14]) of the same compound?
A: The LEL was 108 mg/kg/day.

Q: What about the LOAEL (rat [6]; [14]) of the same compound?
A: Its LOAEL is 108 mg/kg/day.

Q: And the NEL (rat [6]; [14])?
A: Its NEL is 14 mg/kg/day.

Q: And the NOAEL (rat [6]; [14])?
A: The NOAEL was 14 mg/kg/day.

Q: What about the LEL (rat [6]; [21]) of the same compound?
A: The LEL was 14 mg/kg/day.

Q: What about the LOAEL (rat [6]; [21]) of the same compound?
A: Its LOAEL is 14 mg/kg/day.

Q: And the NEL (rat [6]; [22])?
A: The NEL was 3.6 mg/kg/day.

Q: What about the NOAEL (rat [6]; [22]) of the same compound?
A: Its NOAEL is 3.6 mg/kg/day.

Q: What about the LEL (mouse [7]) of the same compound?
A: The LEL was 79.3 mg/kg/day.

Q: What about the LOAEL (mouse [7]) of the same compound?
A: Its LOAEL is 79.3 mg/kg/day.

Q: What about the NEL (mouse [7]) of the same compound?
A: The NEL was 19.8 mg/kg/day.

Q: What about the NOAEL (mouse [7]) of the same compound?
A: Its NOAEL is 19.8 mg/kg/day.

Q: What about the LEL (dog [8]) of the same compound?
A: The LEL was 200 ppm.

Q: And the LOAEL (dog [8])?
A: Its LOAEL is 200 ppm.

Q: And the NEL (dog [8])?
A: Its NEL is 100 ppm.

Q: What about the NOAEL (dog [8]) of the same compound?
A: The NOAEL was 100 ppm.

Q: What about the LEL (rabbit [9]) of the same compound?
A: Its LEL is 90 mg/kg/day.

Q: And the LOAEL (rabbit [9])?
A: Its LOAEL is 90 mg/kg/day.

Q: And the NEL (rabbit [9])?
A: Its NEL is 30 mg/kg/day.

Q: What about the NOAEL (rabbit [9]) of the same compound?
A: Its NOAEL is 30 mg/kg/day.

Q: What about the LEL (rat [10]; [23]) of the same compound?
A: The LEL was 20 ppm.

Q: And the LOAEL (rat [10]; [23])?
A: Its LOAEL is 20 ppm.

Q: What about the NEL (rat [10]; [24]) of the same compound?
A: The NEL was 5 ppm.

Q: And the NOAEL (rat [10]; [24])?
A: Its NOAEL is 5 ppm.

Q: What about the LEL (dog [11]) of the same compound?
A: Its LEL is 80 ppm.

Q: And the LOAEL (dog [11])?
A: The LOAEL was 80 ppm.

Q: What about the NEL (dog [11]) of the same compound?
A: The NEL was 20 ppm.

Q: What about the NOAEL (dog [11]) of the same compound?
A: The NOAEL was 20 ppm.
